Experimental data taken from PubChem BioAssay (NCI).
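Method: 48-hour compound exposure of cells in 96-well plates, five concentrations, linear interpolation of endpoints. At the TGI there is no net growth.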

Tests used:
Assay in all cases: DTP human tumour cell line panel, 48 h
SF-268 CNS = tested on: SF-268 CNS
HCC-2998 colon = tested on: HCC-2998 colon
OVCAR-3 ovarian = tested on: OVCAR-3 ovarian
SNB-19 CNS = tested on: SNB-19 CNS
HOP-92 NSCLC = tested on: HOP-92 NSCLC
CCRF-CEM leukemia = tested on: CCRF-CEM leukemia
SK-MEL-5 melanoma = tested on: SK-MEL-5 melanoma
CAKI-1 renal = tested on: CAKI-1 renal
SK-MEL-2 melanoma = tested on: SK-MEL-2 melanoma
U251 CNS = tested on: U251 CNS
MDA-MB-231 breast = tested on: MDA-MB-231 breast
HT29 colon = tested on: HT29 colon
DU-145 prostate = tested on: DU-145 prostate
PC-3 prostate = tested on: PC-3 prostate

SMILES	TGI (SF-268 CNS) [µM]	TGI (HCC-2998 colon) [µM]	TGI (OVCAR-3 ovarian) [µM]	TGI (SNB-19 CNS) [µM]	TGI (HOP-92 NSCLC) [µM]	TGI (CCRF-CEM leukemia) [µM]	TGI (SK-MEL-5 melanoma) [µM]	TGI (CAKI-1 renal) [µM]	TGI (SK-MEL-2 melanoma) [µM]	TGI (U251 CNS) [µM]	TGI (MDA-MB-231 breast) [µM]	TGI (HT29 colon) [µM]	TGI (DU-145 prostate) [µM]	TGI (PC-3 prostate) [µM]
Cc1ccc(-c2nnc3s/c(=C\c4ccc(N(C)C)cc4)c(=O)n23)cc1	> 100	> 100	> 100	> 100	> 100	> 100	> 100	> 100	> 100	> 100				
CC(C(=O)n1ccnc1)N1c2ccccc2Sc2ccccc21 (stereo not given)	> 100		> 100	> 100	79.9	> 100	> 100		> 100	> 100	> 100	> 100	> 100	> 100
CCOC(=O)C(NC(=O)CC)(Nc1ccc(F)cc1F)C(F)(F)F (stereo not given)	> 100	> 100		> 100		> 100	> 100		> 100	> 100		> 100		> 100
Nc1cc(Cl)ccc1SSc1ccc(Cl)cc1N	83.5			> 100	> 100	> 100	27	35.7	35	15.4	20.3	42.3	29.2	48.4
COc1ccccc1NC(=O)CC(=O)N1N=C(c2ccccc2)C(N=Nc2ccc(Cl)cc2)C1=O (stereo not given)	> 100	> 100	74.3	> 100			42	> 100	> 100	> 100		> 100		
NC(=O)Cn1c(=O)oc2cc(C(=O)CN3CCOCC3)ccc21	> 100		> 100	> 100		> 100	> 100	> 100	> 100	> 100	> 100	> 100	> 100	> 100
O=C(O)CCN(CCCN(CCC(=O)O)CCC(=O)O)CCC(=O)O	> 100	> 100	> 100		> 100	> 100	> 100	> 100	> 100	> 100		> 100		
CC(C)C(Sc1nc(-c2ccccc2)c(-c2ccccc2)[nH]1)c1n[nH]c(=S)n1-c1ccccc1 (stereo not given)	> 100	46	45.9	56.8	72	64.5	31.5		43	61.3		70.3		
O=C(O)c1ccc([C@@H]2C(=O)N(O)[C@@H]3C=CC[C@@H]32)cc1	> 100	> 100	> 100	> 100		> 100	> 100	> 100	> 100			> 100		
Cc1ccccc1Nc1nc(NNC(=O)Cc2ccccc2)nc(NNC(=O)c2ccncc2)n1	> 10	> 10			> 10	> 10		> 10		> 10	> 10	> 10	> 10	
CC1=C(C(=O)CC(=O)C(=O)Nc2ccc(C)c(C)c2)Sc2ccccc2N1	> 100	> 100	> 100	> 100	> 100		> 100	> 100		> 100		> 100		
NC(N)=NS(=O)(=O)c1ccc(NC(=O)c2cccc3c(N)c4ccccc4nc23)cc1	> 100	> 100	> 100	> 100		> 100	> 100	> 100	> 100	> 100				
COc1cc(CNc2cnc3ccc(N)cc3n2)cc(OC)c1OC	> 100	> 100	> 100	> 100	> 100	> 100	> 100	> 100	> 100	> 100		> 100		
O=C(Cc1nc2ccc([N+](=O)[O-])cc2[nH]c1=O)C(=O)Nc1ccccc1[N+](=O)[O-]	> 100	> 100	> 100	> 100	> 100	> 100	> 100	> 100	> 100			> 100		
CCCCC1(O)CC2CC1C(C)C2(C)C (stereo not given)	> 100	> 100	> 100	> 100		> 100	> 100	> 100		> 100	> 100	> 100	> 100	> 100
Cc1cn(C2CCN(CC3COC(C)(C)O3)O2)c(=O)[nH]c1=O (stereo not given)	> 100		> 100		> 100	> 100	> 100	> 100	> 100	> 100	> 100	> 100	> 100	> 100
Cc1nc2c3c(ccc2[nH]c1=O)C(=O)c1ccccc1C3=O	> 100	> 100	> 100	> 100	> 100		> 100	> 100		> 100		> 100		
COc1cc(C2c3cc4c(cc3OC(NCCO)C2C)OCO4)cc(OC)c1O (stereo not given)	> 100	21.8	> 100	> 100	> 100		56.5	> 100	36.9	87.8	> 100	> 100		> 100
CC(C)(C)[Si](C)(C)OCC1OC(n2ccc(=O)[nH]c2=O)C(O[Si](C)(C)C(C)(C)C)[C@]12O[C@@H]2CO (stereo not given in full)	42.5	81.7	28.4	24	32.8		34.7	38.7	28.6	42.6	39.6	23.8	38.1	16.8
C/C=C\C(CC(=O)OC)CC(=O)N(CCC1CN(S(=O)(=O)C(F)(F)F)c2ccccc21)Cc1ccc(OC)cc1OC (stereo not given)	> 100	> 100	> 100	> 100	> 100		> 100	> 100	> 100	> 100	> 100			> 100

SMILES	TGI (SF-268 CNS) [µM]	TGI (HCC-2998 colon) [µM]	TGI (OVCAR-3 ovarian) [µM]	TGI (SNB-19 CNS) [µM]	TGI (HOP-92 NSCLC) [µM]	TGI (CCRF-CEM leukemia) [µM]	TGI (SK-MEL-5 melanoma) [µM]	TGI (CAKI-1 renal) [µM]	TGI (SK-MEL-2 melanoma) [µM]	TGI (U251 CNS) [µM]	TGI (MDA-MB-231 breast) [µM]	TGI (HT29 colon) [µM]	TGI (DU-145 prostate) [µM]	TGI (PC-3 prostate) [µM]
COc1ccc2c(c1)[n+]([O-])c(/C(C)=N/NC(=O)c1ccccc1O)c(C)[n+]2[O-]	> 100	> 100	> 100	> 100	> 100	> 100	> 100	> 100	> 100	> 100		> 100		
O=C1C=C(c2ccccc2)O/C1=C\C(=O)c1ccc(Cl)cc1	52.2	87.5	47.1	> 100	50		91.9	32.5		29.9	32.7	13.1	> 100	30.3
COC(=O)C(=O)C(/C(=N/N)C(=O)Nc1ccccc1C(N)=O)c1nc2ccc([N+](=O)[O-])cc2[nH]c1=O (stereo not given)	> 100	> 100	> 100	> 100		> 100	> 100	> 100	> 100	> 100		> 100		
O=c1[nH]c(=O)n(CCOc2ccc(Cl)cc2)cc1Nc1ccccc1	> 100	> 100	> 100	> 100	> 100	> 100	> 100	> 100		> 100		> 100	> 100	> 100
CC(C)OP(=O)(OC(C)C)C(=NCCN=C(NNc1ccccc1[N+](=O)[O-])P(=O)(OC(C)C)OC(C)C)NNc1ccccc1[N+](=O)[O-]	> 100	> 100	> 100	> 100	> 100	70.9		> 100	40	83.4				
CCN(CC)Cc1cc(Nc2ccnc3ccc4nn(C)nc4c23)ccc1O	36.4	26.4	68	> 100		> 100	29.9	> 100		45.5		20.9		
CN(C)C(=NC#N)N(Cc1ccccc1)Cc1ccccc1	> 100	> 100	> 100	> 100	> 100	> 100	> 100	> 100	> 100	> 100		> 100		
CC1(C)CCCCCCCCCC2CC2CCC(C)(C)C1=O (stereo not given)	43.1		25.9	88.3	62.7	53.3	43.2	> 100	34.5	33	43.9	39.6	40.9	70.9
O=S(=O)(CCC[C@H]1[C@@H](CCOCc2ccccc2)C2CCCN1O2)c1ccccc1 (stereo not given in full)	> 100	> 100	> 100	> 100	> 100	> 100	> 100	> 100		> 100	> 100	> 100		> 100
CCOC(=O)C1SC(=Nc2ccc(Cl)cc2Cl)N=C1C (stereo not given)	> 100	> 100	> 100	> 100	62.3		> 100	> 100	> 100	> 100		> 100		
CC(C)c1ccc(/C=C/c2cc(C(=O)NNC(=O)NC3CCCCC3)nc(=S)[nH]2)cc1	> 100	> 100	> 100	> 100	> 100		> 100	> 100		> 100		> 100		
C/C(=N/O)c1sc(-c2nc(C)c(/C(C)=N\O)s2)nc1C	> 100	> 100	> 100	> 100	> 100	> 100	> 100	> 100		> 100		> 100		
O=C(CN=C(CN(c1ccccc1)c1ccccc1)Oc1ccc(Cl)cc1Cl)n1ccnc1	> 100		> 100	> 100	> 100	> 100	> 100		> 100	> 100	> 100	> 100	> 100	> 100
CCOc1cccc(-c2cc(=O)c3cc4c(cc3[nH]2)OCO4)c1	> 82.1	0.695	3.88	> 27.1	6.04		> 100	9.67	24.9	3.44		0.593	> 100	> 100
C=CCCCC1(C)CCNC1=S (stereo not given)	> 100	> 100	> 100	> 100	> 100		> 100	> 100	> 100	> 100	> 100	> 100	> 100	> 100
NC(CCCCNCc1ccccc1)C(=O)O (stereo not given)	> 100	> 100	> 100	> 100	> 100	> 100	> 100	> 100	> 100	> 100		> 100		
Cc1cc(C)nc(NS(=O)(=O)c2ccc(NC(=O)NC(F)(F)F)cc2)n1	> 100	> 100		> 100		> 100	> 100	72.8	> 100	> 100		> 100		> 100
O=C(CC1(O)C(=O)Nc2c(Cl)cc(Cl)cc21)c1ccc(F)cc1 (stereo not given)	> 100	> 100	68.6	> 100	> 100			> 100	> 100	97.1		70.1		
O=C1C(c2ccccc2)=C(c2ccccc2)C(c2ccc(Sc3ccc(C4=C(c5ccccc5)C(=O)C(c5ccccc5)=C4c4ccccc4)cc3)cc2)=C1c1ccccc1	> 100		> 100	> 100	> 100	> 100	> 100	> 100	> 100	> 100		> 100		
